Reference: patent US7098219B2, “Inhibitors of cellular efflux pumps of microbes” (Wockhart Limited, priority 2000, dated 2006)

Key:
Format in all cases: cell-based
[1] = system: Pseudomonas aeruginosa 23587; assay: Antibiotic diffusion assay, levofloxacin plate versus water control plate; details: zone of inhibition in levofloxacin (5 mcg/ml) plate minus water control plate; Mueller Hinton Agar, 35° C. 20 hours
Method: Testing method for Inhibition of the Efflux Pumps of Pseudomonas aeruzinosa 23587, E. coli 2051, Streptococcus pneumoniae 3514 and Streptococcus pyozenus 26-00
Antibiotic Diffusion Assay
The activity of efflux pump inhibitor was also assessed using an antibiotic diffusion assay. For this assay Pseudomonas aeruginosa 23587 is used. Pseudomonas aeruginosa 23587 is a clinical isolate containing multiple efflux pumps which can be mexAB, mexCD, mexEF but not limited to mex classification only. Pseudomonas aeruginosa are grown in tryptic soya broth for 20 hours at 35° C. Two antibiotic assay plates are prepared in Mueller Hinton Agar using above inoculum. The bacterial count in a plate is 1×10^6 cells/ml. In one of the plates, levofloxacin is incorporated at 5 mcg/ml, while in the control plate an equivalent amount of water is added. […]. The plates are incubated at 35° C. for 20 hours and the zone of inhibition was recorded in mm (table 2). The difference in the diameter of zone of inhibition was calculated by subtracting from the diameter of the zone of inhibition in the levofloxacin containing plate the diameter of the zone of inhibition in the water containing control plate. Example, if the diameter of the zone of inhibition in the levofloxacin plate is X mm and the diameter of the zone of inhibition in the control plate is Y mm, the difference Z=X−Y and is a measure of the activity of the efflux pump inhibitor.

[2] = system: Staphylococcus aureus 1199 B NorA+; details: combination with ciprofloxacin, broth microdilution checkerboard, 35° C. 20 hours; FIC index ≦0.5 synergistic, 0.5–2.0 additive, >2.0 antagonistic
Summary of the method: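 Broth microdilution checkerboard with ciprofloxacin against S. aureus 1199B NorA+, pump inhibitor titrated along one axis; inoculum 5×10^5 CFU/ml in Mueller Hinton broth, 35 °C for 20 hours. Growth read by visible turbidity, confirmed by plate reader; FIC index derived from inhibitor MIC in combination versus alone.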

[3] = system: Mef Efflux Pump of Streptococcus pneumoniae 3514 and Streptococcus pyogenes 26-00; assay: Two plate diffusion assay for macrolide (Mef) efflux pump inhibitors, azithromycin plate versus control plate; details: zone of inhibition in antibiotic plate (method: azithromycin 0.5 mcg/ml; footnote: levofloxacin) minus water control plate; strain not given

Row | Compound | Difference in Zone diameter Z1 (mm) [1] [mm] | FIC INDEX [2] | Difference in Zone diameter Z1 (mm) [3] [mm]
1 | COc1c(N2CCC(C)(O)CC2)c(F)cc2c(=O)c(C(=O)O)cn(C3CC3)c12 [Example 8 (P. aeruginosa), 1-Cyclopropyl-6-fluoro-8-methoxy-1,4-dihydro-7-(4′-hydroxy-4′-methylpiperidin-1-yl)-4-oxo-quinoline-3-carboxylic acid] | 5 | – | –
2 | CCn1cc(C(=O)O)c(=O)c2cc(F)c(N3CC4C(N)C4C3)c(F)c21 (centres unmarked) [Example 4 (NorA), 1-Ethyl-6,8-difluoro-1,4-dihydro-7-{(1∝,5∝,6∝)-6-amino-3-azabicyclo[3.1.01]-hex-3-yl}-4-oxo-quinoline-3-carboxylic acid] | 7 | 0.192 | –
3 | C[C@@H]1CCc2c(N3CCC(OC(=O)[C@H](N)Cc4ccccc4)CC3)c(F)cc3c(=O)c(C(=O)O)cn1c23.Cl (racemic) [Example 26 (P. aeruginosa), (RS)-(±)-9-Fuoro-6,7-dihydro-8-{4′-(D-phenylalaninoxy)piperidin-1-yl}-5-methyl-1-oxo-1H,5H-benzo[i,j]quinolizine-2-carboxylic acid hydrochloride] | 12 | – | –
4 | C[C@H](N)C(=O)OC1CCN(c2c(F)cc3c(=O)c(C(=O)O)cn4c3c2CC[C@@H]4C)CC1.Cl [Example 30 (P. aeruginosa), (S)-(−)-9-Fluoro-6,7-dihydro-8-{4′-(L-alanyloxy)piperidin-1-yl}-5-methyl-1-oxo-1H,5H-benzo[i,j]quinolizine-2-carboxylic acid hydrochloride] | 9 | – | –
5 | O=C(O)c1cn(-c2ccc(F)cc2F)c2nc(NC3CCNCC3)c(F)cc2c1=O [Example 50 (NorA), 1-(2′,4′-Difluorophenyl)-6-fluoro-1,4-dihydro-7-(piperidin-4-yl-amino)-4-oxo-1,8-naphthyridine-3-carboxylic acid] | 6 | 0.314 | –
6 | CC1CN(c2c(F)cc3c(=O)c(C(=O)O)cn4c3c2CCC4C)CCC1O (racemic) [Example 34 (P. aeruginosa), (RS)-(+)-9-Fluoro-6,7-dihydro-8-(cis-4′-hydroxy-3′-methylpiperidin-1-yl}-5-methyl-1H,5H-benzo[i,j]quinolizine-2-carboxylic acid] | 6 | – | –
7 | COc1c(N2CCC(O)C(C)(C)C2)c(F)cc2c(=O)c(C(=O)O)cn(C3CC3)c12 (centres unmarked) [Example 21 (NorA), 1-Cyclopropyl-6-fluoro-8-methoxy-1,4-dihydro-7-(4′-hydroxy-3′,3′-dimethylpiperidin-1-yl)-4-oxo-quinoline-3-carboxylic acid] | 8 | 0.264 | –
8 | O=C(O)c1cn(C2CC2)c2nc(NC3CCNC3)c(F)cc2c1=O (centres unmarked) [Example 49 (NorA), 1-Cyclopropyl-6-fluoro-1,4-dihydro-7-(pyrrolidin-3-yl-amino)-4-oxo-1,8naphthyridine-3-carboxylic acid] | 6 | 0.188 | –
9 | CCC1CN(c2c(F)cc3c(=O)c(C(=O)O)cn4c3c2OCC4C)CCC1O (centres unmarked) [Example 36 (P. aeruginosa), 7H-Pyrido[1,2,3-de]-1,4-benzoxazine-9-fluoro-2,3-dihydro-3-methyl-10-(4′-hydroxy-3′-ethylpiperidin-1′-yl)-7-oxo-6-carboxylic acid] | 5 | – | 5
10 | CC1CCc2c(N3CCC(OC(=O)[C@@H](N)CC(=O)O)CC3)c(F)cc3c(=O)c(C(=O)O)cn1c23.Cl (mixture of isomers) [Example 27 (P. aeruginosa), (RS)-(±)-9-Fluoro-6,7-dihydro-8-4′-(L-ot-aspartyloxy)piperidin-1-yl]-5-methyl-1-oxo-1H,5H-benzo[i,j]quinolizine-2-carboxylic acid hydrochloride] | 11 | – | 6
11 | CCN1C(C)CN(c2cc3c(cc2F)c(=O)c(C(=O)O)cn3C2CC2)CC1C (centres unmarked) [Example 16 (NorA), 1-Cyclopropyl-6-fluoro-1,4-dihydro-7-(3′,5′-dimethyl-4′-ethylpiperazin-1-yl)-4-oxo-quinoline-3-carboxylic acid] | 8 | 0.314 | –
12 | CCNC1CCN(c2c(F)c(N)c3c(=O)c(C(=O)O)cn(C4CC4)c3c2OC)CC1(C)C (centres unmarked) [Example 5 (P. aeruginosa), 5-Amino-1-cyclopropyl-6-fluoro-8-methoxy-1,4-dihydro-7-{3′,3′-dimethyl-4′-ethylaminopiperidin-1-yl}-4-oxo-quinoline-3-carboxylic acid] | 3 | – | –
13 | Nc1c(F)c(N2CCC(N)C2)c(F)c2c1c(=O)c(C(=O)O)cn2-c1ccc(F)cc1F (centres unmarked) [Example 16 (P. aeruginosa), 5-Amino-1-(2′,4′-difluorophenyl)-6,8-difluoro-1,4-dihydro-7-(3-aminopyrrolidine-1-yl)-4-oxo-quinoline-3-carboxylic acid] | 3 | – | –
14 | CCC1CN(c2nc3c(cc2F)c(=O)c(C(=O)O)cn3C2CC2)CCC1N (centres unmarked) [Example 20 (P. aeruginosa), 1-Cyclopropyl-6-fluoro-1,4-dihydro-7-(4′-amino-3′-ethylpiperidin-1-yl)-4-oxo-naphthyridine-3-carboxylic acid] | 6 | – | –
15 | COC1CCN(c2cc3c(c(C)c2F)c(=O)c(C(=O)O)cn3C2CC2)CC1 [Example 1 (P. aeruginosa), 1-Cyclopropyl-6-fluoro-1,4-dihydro-5-methyl-7-(4′-methoxypiperidin-1-yl)-4-oxo-quinoline-3-carboxylic acid] | 13 | – | –
16 | CCOC(=O)C1(N)CCN(c2c(F)c(N)c3c(=O)c(C(=O)O)cn(C4CC4)c3c2F)C1 (centres unmarked) [Example 17 (P. aeruginosa)] | 8 | – | –
17 | COc1c(N2CCC(N)C(C)C2)c(F)c(N)c2c(=O)c(C(=O)O)cn(C3CC3)c12 (centres unmarked) [Example 4 (P. aeruginosa), 5-Amino-1-cyclopropyl-6-fluoro-8-methoxy-1,4-dihydro-7-(4′-amino-3′-methylpiperidin-1-yl)-4-oxo-quinoline-3-carboxylic acid] | 5 | – | –
18 | CCN1CCN(c2cc3c(cc2F)c(=O)c(C(=O)O)cn3C2CC2)CC1C (centres unmarked) [Example 13 (P. aeruginosa), 1-Cyclopropyl-6-fluoro-1,4-dihydro-7-(4′-ethyl-3′-methylpiperazin-1-yl)-4-oxo-quinoline-3-carboxylic acid] | 4 | – | –
19 | Cc1c(F)c(N2CCC(O)C(CN)C2)c(F)c2c1c(=O)c(C(=O)O)cn2C1CC1 (centres unmarked) [Example 25 (NorA), 1-Cyclopropyl-6,8-difluoro-5-methyl-1,4-dihydro-7-(4′-hydroxy-3′-aminomethylpiperidin-1-yl)-4-oxo-quinoline-3-carboxylic acid] | 5 | 0.192 | –
20 | NCC1CN(c2c(F)c(N)c3c(=O)c(C(=O)O)cn(C4CC4)c3c2F)CCC1O (centres unmarked) [Example 11 (P. aeruginosa), 5-Amino-1-(cyclopropyl)-6,8-difluoro-1,4-dihydro-7-(3′-aminomethyl-4′-hydroxy-piperidin-1-yl)-4-oxo-quinoline-3-carboxylic acid] | 3 | – | –
21 | (S)-(−)-9-Fluoro-6,7-dihydro-8-(4′-hydroxypiperidin-1-yl)-5-methyl-1-oxo-1H,5H-benzo[i,j]quinolizine-2-carboxylic acid. (L) histidine salt [Example 25 (P. aeruginosa)] | 5 | – | –
22 | CC1CCc2c(N3CC[C@@H](O)[C@H](C)C3)c(F)cc3c(=O)c(C(=O)O)cn1c23 (mixture of isomers) [Example 33 (P. aeruginosa), (RS)-(+)-9-Fluoro-6,7-dihydro-8-(trans-4′-hydroxy-3′-methylpiperidin-1-yl)-5-methyl-1-oxo-1H,5H-benzo[i,j]quinolizine-2-carboxylic acid] | 6 | – | –
23 | CCOC(=O)c1cn(-c2ccc(F)cc2F)c2nc(N3CCC(N)C(CC)C3)c(F)cc2c1=O (centres unmarked) [Example 36 (Mef), Ethyl 1-(2,4-difluorophenyl)-6-fluoro-1,4-dihydro-7-(4-amino-3-ethylpiperidin-1-yl)-4-oxo-1,8-naphthyridine-3-carboxylate] | – | – | 10
24 | COc1c(N2CCC(N(C)C)CC2)c(F)cc2c(=O)c(C(=O)O)cn(C3CC3)c12 [Example 7 (P. aeruginosa), 1-Cyclopropyl-6-fluoro-8-methoxy-1,4-dihydro-7-{4′-dimethylaminopiperidin-1-yl}-4-oxo-quinoline-3-carboxylic acid] | 5 | – | –
